Paper PMC5039424 (2016)

System: yeast tRNA^Phe (RNA, tRNA) GCGGAUUUAGCUCAGUUGGGAGAGCGCCAGACUGAAGAUCUGGAGGUCCUGUGUUCGAUCCACAGAAUUCGCACCA
Experiment: inhibition of lead(II)-induced cleavage, gel
Details: 10 mM Mg2+, 1 mM NH4+, 0.5 mM Pb2+; 50% inhibition of Pb2+ cleavage; 50 mM Tris-HCl pH 7.5; RNA 2.4 μM

Row | Ki [µM] | SMILES
1 | 166 ± 42 | CN(C)c1ccc2cc3ccc(N(C)C)cc3[o+]c2c1
2 | 98 ± 20 | CN(C)c1ccc2nc3ccc(N(C)C)cc3[s+]c2c1
3 | 52 ± 8.3 | CN(C)c1ccc2nc3ccc(N)cc3[s+]c2c1
4 | 58 ± 28 | CNc1ccc2nc3ccc(=[N+](C)C)cc-3sc2c1
